# Reference: US20110313677A1, “METHOD FOR DETERMINING THE LIVER PERFORMANCE OF A LIVING ORGANISM BY THE MEANS OF QUANTITATIVE MEASURING THE METABOLIZATION OF SUBSTRATES” (HUMEDICS GMBH, priority 2009, published 2011)
# Key:
# [1] = concentration changes of 13C methacetin and its dealkylation product Paracetamol in the blood followed by HPLC; details: FIG. 8, blood
# From the text: Beside or additionally to the determination of the amount of a ^13C labelled metabolization product as for instance ^13CO2 in the exhalation air for estimating the liver performance it is also conceivable to follow the concentration decrease of the dealkylated product in the blood and to deduce from the corresponding slope kinetics a time constant tau.
# The concentration changes of the administered ^13C labelled substrate, for instance ^13C methacetin and of the dealkylation product formed in the liver, for instance Paracetamol, are followed by the means of a suitable analytical method, for instance HPLC. […] The initial concentration changes can also be described here with a differential equation of first order.
# [2] = target: T1, CYP1A2 (Homo sapiens, UniProt P05177); experiment: breath test: 13CO2 increase in exhalation air after intravenous 13C methacetin (DOB slope kinetics, LiMAx); format: in vivo
# T1 construct: follow directly and immediately the metabolization of the administered substrate by the enzymes present in the liver; from tissue; host or cells: liver of the living human subject (in vivo)
# T1 sequence (P05177 1-516): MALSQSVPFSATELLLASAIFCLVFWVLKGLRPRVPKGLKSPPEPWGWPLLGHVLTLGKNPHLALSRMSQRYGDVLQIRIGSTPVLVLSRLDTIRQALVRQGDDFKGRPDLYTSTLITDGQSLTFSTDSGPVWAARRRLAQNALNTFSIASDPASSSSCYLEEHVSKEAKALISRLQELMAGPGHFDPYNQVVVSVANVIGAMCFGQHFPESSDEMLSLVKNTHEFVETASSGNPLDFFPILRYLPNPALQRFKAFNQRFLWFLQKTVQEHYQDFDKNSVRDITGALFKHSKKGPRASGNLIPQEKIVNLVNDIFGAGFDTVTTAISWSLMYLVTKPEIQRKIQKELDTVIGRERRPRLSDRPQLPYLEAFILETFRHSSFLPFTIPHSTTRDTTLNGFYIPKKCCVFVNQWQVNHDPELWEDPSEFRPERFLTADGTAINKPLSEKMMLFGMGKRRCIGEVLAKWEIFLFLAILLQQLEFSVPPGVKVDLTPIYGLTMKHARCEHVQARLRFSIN
# From the text: Thereby, the method according to an aspect of the invention comprises the steps of administering at least one ^13C labelled substrate, which is converted by the liver by releasing at least one ^13C labelled metabolization product, in particular ^13CO2 and the step of determining the amount of the at least one formed ^13C labelled metabolization product, in particular of the ^13CO2 amount, in the exhalation air over a definite time interval by the means of at least one measuring device with at least one evaluation unit. In an embodiment, the amount of the formed ^13C labelled metabolization product, in particular of ^13CO2 in the exhalation air, is proportional to the amount of the at least one administered substrate. The method according to an aspect of the invention is characterized in that it is now possible based on the determined measure points to describe the measured initial increase of the amount of the at least one ^13C labelled metabolization product, in particular of the ^13CO2 amount, in the exhalation air by the means of a differential equation of first order. Based on the solution of this differential equation of first order subsequently a maximum value Amax (also designated as DOBmax, whereby DOB stands for “delta over baseline”) and a time constant tau of the increase of the amount of the ^13C labelled metabolization product, in particular of the ^13CO2 amount, are determined.
# wherein (t) stands for the metabolization dynamic of the at least one substrate, t for the measuring time, t0 for the start of the metabolization, tau for the time constant of the conversion and Amax for the maximum amplitude of the fitted function or the maximum concentration of the metabolization product and A0 for the initial concentration of the metabolization product. Therefore, a determination of Amax and the time constant tau is possible based on the above equation.
# wherein RPDB corresponds to the value 0,011237 (Pee-Dee-Belemnite-standard of the ^13CO2/^12CO2-ratio), P to the CO2 production rate, M to the molar mass of the administered substance and BW to the body weight of the person.
# In an embodiment of the present method the determination of the liver performance of a human occurs according to a scheme as shown in FIG. 2. During this measurement course the metabolization is started by the intravenous administering of the substrate to be metabolized, in particular ^13C methacetin 1 in combination with an isotonic sodium chloride solution 1a.
# Beside an enzymatic activation of the substrate in particular by the P450 oxygenases also a release or activation of the substrate by the means of radiation or other fast processes is conceivable. The released metabolization product for instance ^13CO2 is transported via the blood into the lung and is there exhaled. The exhalation air is continuously transported into the measuring device 2, e.g., via a breathing mask and a connecting tube and is analyzed by the means of a computer 3 (Stockmann et al., Annals of Surgery, 2009, 250: col. 119-125). A measuring device suitable for the present method is for instance described in WO 2007/107366 A1.
# Due to the specific measuring device being applied it is possible to follow the metabolization of the substrate in each breath in real time. This is emphasized in FIG. 3. […] Thereby 1 DOB indicates a change of the ^13CO2 to ^12CO2 ratio at about thousandth part over the natural ratio. As described before, Amax or DOBmax as well as the time constant tau are deducible from said slope. After the ^13CO2 increase has reached a maximum a decrease of the ^13CO2 concentration occurs what can be attributed to further dynamic processes in the body which contribute to the degradation of the measured signal.
# described metabolization dynamics it is possible to follow directly and immediately the metabolization of the administered substrate by the enzymes present in the liver. If methacetin is administered as substrate, it is demethylated by the enzyme CYP1A2. […]
# [3] = in vivo
time constant τ1 for the initial fast concentration increase ([1]; Paracetamol formed from 13C methacetin) [min],time constant τ2 for the subsequent decelerated concentration increase ([1]; further distribution in the blood) [min],"measured maximum value A of the 13CO2 increase in the breathing air ([2]; FIG. 7, curve A, determined data points)","time constant tau for the conversion ([2]; FIG. 7, curve B, fit of the initial 13CO2 increase) [min]","amplitude Amax of the fitted function ([2]; FIG. 7, curve B, fit with solution of a differential equation of first order)","maximum conversion ([2]; after the operation, residual liver volume 625 ml) [µg/h/kg]","maximum conversion LiMAx ([2]; before the liver operation, total liver volume 1450 ml) [µg/h/kg]",maximum conversion LiMAx ([2]; cirrhosis of the liver (FIG. 4b)) [µg/h/kg],maximum conversion LiMAx ([2]; corresponding to the aspired residual liver volume of 698 ml (rule of three)) [µg/h/kg],maximum conversion LiMAx ([2]; liver failure (FIG. 4d)) [µg/h/kg],maximum conversion LiMAx ([2]; normal liver performance (FIG. 4a)) [µg/h/kg],initial concentration in the blood [3] [µg/mL],SMILES,maximum conversion LiMAx ([2]; heavy liver damages (FIG. 4c)) [µg/h/kg]
1.3,16,–,–,–,–,–,–,–,–,–,–,CC(=O)Nc1ccc(O)cc1 [Paracetamol],–
–,–,"22,01 DOB",2.42,"22,09 DOB",169,307,307,165,55,504,20,"CC(=O)Nc1ccc(O[13CH3])cc1 [^13C methacetin, ^13C-methacetin]",144
